Source: publication PMC5590070, “Anti-Inflammatory, Antioxidant, Antibiotic, and Cytotoxic Activities of Tanacetum vulgare L. Essential Oil and Its Constituents” (Medicines, 2017)
In brackets after ≈: the same amount, converted by molar mass. Read-outs that look alike come from different tables or passages of the source.

Key:
in vitro = conditions: human
Protocol: (§1) We plated in 96-well microplates—each containing a 100 µL culture medium—exponentially growing cells of human skin fibroblasts WS1, human HaCaT keratinocytes, human lung carcinoma A-549, and human colon adenocarcinoma DLD-1 at a density of 5 × 10^3 cells per well (Costar, Corning Inc., Lowell, MA, USA). The cells were allowed to adhere for 16 h before treatment. We then treated cells with T. vulgare essential oil or dissolved compounds in DMSO. The final concentration of DMSO in the culture medium was 0.5% (v/v) to avoid solvent toxicity. After 48 h, we assessed the cytotoxicity using the resazurin reduction test. Fluorescence was measured on an automated Fluoroskan Ascent FL^TM plate reader (Labsystems, Milford, MA, USA) using an excitation wavelength of 530 nm and an emission wavelength of 590 nm.
We assessed the cytotoxic activity of T. vulgare essential oil and its main compounds against human lung carcinoma A-549, colon adenocarcinoma DLD-1, human keratinocytes HaCaT, and healthy WS1 cell lines.

[1] = test system: human skin fibroblasts WS1; assay: Cell-based antioxidant DCFH-DA assay (tert-butylhydroperoxide-induced DCFH oxidation); conditions: inhibition of DCFH oxidation induced by tert-butylhydroperoxide, WS1 cells; for IC50: Homo sapiens
Protocol: Antioxidant activity was evaluated using the DCFH-DA assay as described by Girard-Lalancette et al.. To assess antioxidant activity, we incubated the human skin fibroblasts WS1 for 1 h with a growing concentration of essential oil or dissolved compounds in DMSO. We then added 100 µL of 200 µM tert-butylhydroperoxide and immediately measured fluorescence as well as again after 90 min later. Measurements were performed on an automated plate reader (Fluoroskan Ascent FL, Labsystems, Milford, MA, USA) using an excitation wavelength of 485 nm and an emission wavelength of 530 nm.

[2] = Cytotoxic assay, resazurin reduction test, 48 h; type: cell-based, human; conditions: human
Protocol: as §1

[3] = test system: NO production in murine macrophage RAW 264.7 cells; assay: Inhibition of NO production in LPS-stimulated RAW 264.7 macrophages (Griess reaction); type: cell-based; conditions: for IC50 / Anti-Inflammation IC50: inhibition of NO production, RAW 264.7, 100 ng·mL^−1 LPS, 24 h; for IC50: read-out: Anti-Inflammation IC50
Protocol: We evaluated the inhibition NO production by T. vulgare essential oil and compounds as described by Legault et al.. Control L-NAME was used as positive control. Murine macrophage RAW 264.7 cells were incubated with essential oil or dissolved compounds in DMSO and then stimulated with 100 ng·mL^−1 LPS and incubated at 37 °C. After 24 h, we collected the cell-free supernatants and immediately determined the NO concentration using the Griess reaction. We read the absorbance at 540 nm using an automated Varioskan Ascent plate reader (Labsystems, Milford, MA, USA), and quantified the presence of nitrite by comparing with a NaNO2 standard curve.

[4] = test system: Staphylococcus aureus (ATCC 25923); assay: Antibacterial hydrophobic assay (resazurin); type: cell-based
Description: (§2) We tested the antibacterial activities of T. vulgare essential oil and compounds against gram-negative Escherichia coli (ATCC bacteria 25922) and gram-positive Staphylococcus aureus (ATCC bacteria 25923) using the antibacterial hydrophobic assay as described by Côté et al.. This new method was developed and used in this work as classical methods including disc diffusion and microdilution assays are sometimes inefficient for testing a matrix or compounds of a hydrophobic nature. Briefly, after microorganisms passed 16–18 h at 37 °C in a nutrient broth base (Difco), we transferred 20 µL methanol containing growing concentrations of essential oil and compounds (3.1 to 200 µg·mL^−1) onto nutrient agar of 96-well plates. We then added bacterial strains having a concentration of 5 × 10^3 colony forming units (CFU) per mL of nutrient broth. […] The blank consisted of culture medium only and was subtracted from all subsequent measurements of every other well. The 96-well plates were then incubated at 37 °C for 5 h to foster bacterial growth. We then added 100 µL of resazurin sodium salt solution having a concentration of 50 µg·mL^−1 (Sigma R-2127, St-Louis, MO, USA) to each well.

[5] = test system: Escherichia coli (ATCC 25922); assay: Antibacterial hydrophobic assay (resazurin); type: cell-based
Description: as §2

[6] = test system: human lung carcinoma A-549; assay: Cytotoxic assay, resazurin reduction test, 48 h; type: cell-based; conditions: A-549, 48 h
Protocol: as §1

[7] = test system: human skin fibroblasts WS1; assay: Cytotoxic assay, resazurin reduction test, 48 h; type: cell-based; conditions: WS1, 48 h
Protocol: as §1

[8] = test system: human colon adenocarcinoma DLD-1; assay: Cytotoxic assay, resazurin reduction test, 48 h; type: cell-based; conditions: DLD-1, 48 h
Protocol: as §1

[9] = A-549 lung carcinoma cells, A-549, 48 h, read-out: Cytotoxicity IC50 A549
[10] = DLD-1 colon adenocarcinoma cells, DLD-1, 48 h, read-out: Cytotoxicity IC50 DLD1
[11] = WS1 skin fibroblasts, WS1, 48 h, read-out: Cytotoxicity IC50 WS1
[12] = Staphylococcus aureus, ATCC25923, S. aureus, 50% inhibition of bacterial growth
[13] = Escherichia coli, ATCC25922, E. coli, 50% inhibition of bacterial growth
[14] = S. aureus, 50% inhibition of bacterial growth
[15] = E. coli, 50% inhibition of bacterial growth
[16] = A-549, 48 h, read-out: Cytotoxicity IC50 A549
[17] = DLD-1, 48 h, read-out: Cytotoxicity IC50 DLD1
[18] = WS1, 48 h, read-out: Cytotoxicity IC50 WS1
[19] = Staphylococcus aureus, ATCC25923, read-out: Antibacterial IC50 S. aureus
[20] = Escherichia coli, ATCC25922, read-out: Antibacterial IC50 E. coli

Structure (SMILES) | IC50 at 48 h (in vitro) [µg/mL] | IC50 ([3]; Mus musculus, RAW264.7) [µg/mL] | IC50 [4, 12] [µg/mL] | IC50 [5, 13] [µg/mL] | IC50 [1] [µg/mL] | IC50 at 48 h [2, 9] [µg/mL] | IC50 at 48 h [2, 10] [µg/mL] | IC50 at 48 h [2, 11] [µg/mL] | other results
C=C1CC[C@H]2O[C@]2(C)CC[C@@H]2[C@@H]1CC2(C)C [Caryophyllene oxide] | – | – | – | – | – | – | – | – | Antioxidant IC50 [1]: 6.2 ± 0.5 µg/mL; Cytotoxicity IC50 A549 [6]: 36 ± 2 µg/mL; Cytotoxicity IC50 WS1 [7]: 50 ± 4 µg/mL; Cytotoxicity IC50 DLD1 [8]: 43 ± 3 µg/mL; Anti-Inflammation IC50 [3]: 183 ± 15 µg/mL; Antibacterial IC50 S. aureus [4, 14]: 10.4 ± 0.9 µg/mL; Antibacterial IC50 E. coli [5, 15]: 97 ± 2 µg/mL
O=C(N[C@H](CO)[C@H](O)c1ccc([N+](=O)[O-])cc1)C(Cl)Cl [Chloramphenicol, reference compound] | – | – | – | – | – | – | – | – | MIC90 ([4]; Staphylococcus aureus, ATCC25923, S. aureus, antibiotic positive control): 0.73 µg/mL (≈ 2.26 µM); MIC90 ([5]; Escherichia coli, ATCC25922, E. coli, antibiotic positive control): 0.9 µg/mL (≈ 2.79 µM)
COc1cc([C@@H]2c3cc4c(cc3[C@@H](O[C@@H]3O[C@@H]5CO[C@@H](C)O[C@H]5[C@H](O)[C@H]3O)[C@H]3COC(=O)[C@H]23)OCO4)cc(OC)c1O [Etoposide, reference compound] | – | – | – | – | – | – | – | – | IC50 at 48 h ([2]; A-549 lung carcinoma cells, A-549, cytotoxic positive control, read-out: Cytotoxicity IC50 A-549): 2.3 µM; IC50 at 48 h ([2]; DLD-1 colon adenocarcinoma cells, DLD-1, cytotoxic positive control, read-out: Cytotoxicity IC50 DLD-1): 2.8 µM; IC50 at 48 h ([2]; WS1 skin fibroblasts, WS1, cytotoxic positive control, read-out: Cytotoxicity IC50 WS1): 19 µM
COC(=O)[C@@H](N)CCCNC(N)=N[N+](=O)[O-] [L-NAME, reference compound] | – | – | – | – | – | – | – | – | inhibition at 1000 µM ([3]; Mus musculus, RAW264.7, 1 mM, positive control): 64.1%
C=C(C)[C@H]1CC=C(C)CC1 [Limonene] | – | – | – | – | – | – | – | – | Cytotoxicity IC50 A549 [6]: 71 ± 6 µg/mL; Cytotoxicity IC50 DLD1 [8]: 31 ± 3 µg/mL; Anti-Inflammation IC50 [3]: >200 µg/mL; Antibacterial IC50 S. aureus [4, 14]: >200 µg/mL; Antibacterial IC50 E. coli [5, 15]: >200 µg/mL
O=c1c(O)c(-c2ccc(O)c(O)c2)oc2cc(O)cc(O)c12 [Quercetin, reference compound] | – | – | – | – | 0.043 (≈ 0.142 µM) | – | – | – | –
CC1=CCC(O)(C(C)C)CC1 (stereo not drawn) [Terpinen-4-ol] | – | > 200 | > 200 | > 200 | > 200 | > 200 | > 200 | > 200 | –
CC1=CCC(=C(C)C)CC1 [Terpinolene] | – | > 200 | – | – | – | – | – | – | IC50 at 48 h [2, 16]: > 200 µg/mL; IC50 at 48 h [2, 17]: > 200 µg/mL; IC50 at 48 h [2, 18]: > 200 µg/mL; IC50 [4, 19]: > 200 µg/mL; IC50 [5, 20]: > 200 µg/mL
Cc1ccc(C(C)C)cc1 [p-Cymene] | – | > 200 | > 200 | > 200 | > 200 | > 200 | > 200 | > 200 | –
CC1=CC=C(C(C)C)CC1 [α-Terpinene] | 28 to 112 (≈ 206 to 822 µM) | 46 ± 4 (≈ 338 µM) | – | – | > 200 | – | – | – | IC50 at 48 h [2, 16]: 63 ± 10 µg/mL; IC50 at 48 h [2, 17]: 73 ± 7 µg/mL; IC50 at 48 h [2, 18]: 53 ± 12 µg/mL; IC50 [4, 19]: > 200 µg/mL; IC50 [5, 20]: > 200 µg/mL
C=C1CC/C=C(\C)CC[C@@H]2[C@@H]1CC2(C)C [β-Caryophyllene] | 28 to 112 (≈ 137 to 548 µM) | > 200 | > 200 | > 200 | > 200 | 55 ± 5 | 97 ± 6 | 59 ± 7 | –
C=C1CCC2CC1C2(C)C (stereo not drawn) [β-Pinene] | 28 to 112 (≈ 206 to 822 µM) | 46 ± 9 (≈ 338 µM) | > 200 | > 200 | > 200 | – | – | – | IC50 at 48 h [2, 16]: 43 ± 4 µg/mL; IC50 at 48 h [2, 17]: 49.4 ± 0.3 µg/mL; IC50 at 48 h [2, 18]: 29 ± 14 µg/mL
CC1=CCC(C(C)C)=CC1 [γ-Terpinene] | 28 to 112 (≈ 206 to 822 µM) | > 200 | – | – | – | – | – | – | IC50 at 48 h [2, 16]: 112 ± 15 µg/mL; IC50 at 48 h [2, 17]: > 200 µg/mL; IC50 at 48 h [2, 18]: 82 ± 15 µg/mL; IC50 [4, 19]: 50 ± 9 µg/mL (≈ 367 µM); IC50 [5, 20]: > 200 µg/mL

Continued, in another order:

IC50 at 48 h (in vitro) [µg/mL] | IC50 ([3]; Mus musculus, RAW264.7) [µg/mL] | IC50 [4, 12] [µg/mL] | IC50 [5, 13] [µg/mL] | Structure (SMILES) | IC50 [1] [µg/mL] | IC50 at 48 h [2, 9] [µg/mL] | IC50 at 48 h [2, 10] [µg/mL] | IC50 at 48 h [2, 11] [µg/mL] | other results
> 200 | > 200 | > 200 | > 200 | CC12CCC(CC1)C(C)(C)O2 [1,8-Cineole] | > 200 | > 200 | > 200 | > 200 | –
> 200 | > 200 | > 200 | > 200 | CC1(C)C2CCC1(C)C(O)C2 (stereo not drawn) [Borneol] | > 200 | > 200 | > 200 | > 200 | –
– | > 200 | > 200 | > 200 | CC(=O)OC1CC2CCC1(C)C2(C)C (stereo not drawn) [Bornyl acetate] | > 200 | > 200 | > 200 | > 200 | –
28 to 112 (≈ 206 to 822 µM) | > 200 | > 200 | > 200 | C=C1C2CCC(C2)C1(C)C (stereo not drawn) [Camphene] | > 200 | 72 ± 2 | 75 ± 5 | 49 ± 1 | –
> 200 | > 200 | 22 to 26 (≈ 145 to 171 µM) | 22 to 26 (≈ 145 to 171 µM) | CC12CCC(CC1=O)C2(C)C (stereo not drawn) [Camphor] | > 200 | > 200 | > 200 | > 200 | Antibacterial IC50 S. aureus [4, 14]: 26 ± 3 µg/mL; Antibacterial IC50 E. coli [5, 15]: 22 ± 1 µg/mL
28 to 112 (≈ 206 to 822 µM) | 30 ± 4 (≈ 220 µM) | – | – | CC1=CCC2CC1C2(C)C (stereo not drawn) [α-Pinene] | 3.4 ± 0.2 (≈ 25 µM) | 35 ± 6 | 58 ± 18 | 57 ± 4 | –
